Measurements published in paper PMC4904746 (EXCLI Journal, 2013).
Entries after “also recorded” stand apart in the source; their conditions may differ.

Molecular target: α-glucosidase from recombinant Saccharomyces cerevisiae (Saccharomyces cerevisiae, UniProt P53341)
Assay: α-glucosidase inhibitory activity assay
Format: biochemical
Conditions: comparison among the fractions and compounds 1-8 isolated from CCF

Chain of α-glucosidase from recombinant Saccharomyces cerevisiae (P53341 whole entry): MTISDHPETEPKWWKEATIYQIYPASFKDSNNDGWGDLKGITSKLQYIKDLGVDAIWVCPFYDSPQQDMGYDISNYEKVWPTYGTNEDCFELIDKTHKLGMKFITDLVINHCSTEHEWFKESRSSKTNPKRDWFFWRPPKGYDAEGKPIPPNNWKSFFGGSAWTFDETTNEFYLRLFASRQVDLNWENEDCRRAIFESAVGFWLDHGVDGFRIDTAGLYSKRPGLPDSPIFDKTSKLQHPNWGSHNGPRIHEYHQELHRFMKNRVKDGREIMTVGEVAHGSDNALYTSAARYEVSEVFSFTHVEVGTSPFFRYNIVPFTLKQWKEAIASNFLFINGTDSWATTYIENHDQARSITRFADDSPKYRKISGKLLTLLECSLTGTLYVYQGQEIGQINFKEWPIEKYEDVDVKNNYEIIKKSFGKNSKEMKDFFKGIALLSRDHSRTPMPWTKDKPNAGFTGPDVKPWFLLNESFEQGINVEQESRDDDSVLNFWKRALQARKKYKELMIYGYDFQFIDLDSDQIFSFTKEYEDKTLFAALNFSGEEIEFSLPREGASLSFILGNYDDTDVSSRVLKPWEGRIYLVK

Structure (SMILES) | α-glucosidase inhibitory activity (comparison in words)
O=c1c(O)c(-c2ccc(O)cc2)oc2cc(O)cc(O)c12 [Compound 3, kaempferol] | higher α-glucosidase inhibitory activity than the flavonoid
O=c1c(O[C@@H]2O[C@H](CO)[C@H](O)[C@H](O)[C@H]2O)c(-c2ccc(O)c(O)c2)oc2cc(O)cc(O)c12 [Compound 4, hyperin] | more significant inhibitory activity against α-glucosidase than other mono-hydroxy flavonoids
O=c1c(O)c(-c2ccc(O)cc2)oc2cc(O[C@@H]3O[C@H](CO)[C@@H](O)[C@H](O)[C@H]3O)cc(O)c12 [Compound 8, kaempferol-7-O-β-D-glucoside] | higher α-glucosidase inhibitory activity than the flavonoid
O=c1c(O)c(-c2ccc(O)c(O)c2)oc2cc(O)cc(O)c12 [Compound 6, quercetin] | higher α-glucosidase inhibitory activity than the flavonoid; also recorded: more significant inhibitory activity against α-glucosidase than other mono-hydroxy flavonoids; also recorded: highest α-glucosidase inhibitory activity
